Assay: Cytotoxicity by survived cell number in 293 cells expressing ∆K280 TauRD‐DsRed
Assay type: cell-based
Details: human; for viability at 3 days, 1 µM: % of cells without treatment; for IC50 at 3 days: 293 cells expressing ∆K280 TauRD‐DsRed for 3 days
Text: In ∆K280 TauRD‐DsRed 293 cells, a proaggregant (ΔK280) Tau repeat domain (TauRD) containing residues 244–372 of the full‐length 4R2N Tau441 was fused in‐frame with DsRed fluorophore. Compared to the wild‐type TauRD, the poorly folded ΔK280 TauRD formed aggregates, which adversely affected the folding of fused DsRed and thus decreased DsRed fluorescence, as also evidenced by increase in thioflavin S fluorescence emission (Chang et al., 2017). Thioflavin S is a reporter dye for studies of Tau toxicity and pharmacologic prevention in cell model of tauopathy (Pickhardt et al., 2017). It binds to amyloid fibrils but not monomers and gives a distinct increase in fluorescence emission. Inhibition of Tau aggregation may improve DsRed misfolding, leading to increased fluorescence in ΔK280 TauRD‐DsRed‐expressing cells. Utilizing the established Tet‐on ΔK280 TauRD‐DsRed 293 cells (Chang et al., 2016), licochalcone A and LM compounds were tested for effects of reducing Tau misfolding and anti‐oxidation (Figure S2a). Congo red was included for comparison. […] In the following experiments, DsRed fluorescence was measured in wells containing at least 80% viable cells. […] Due to the features of their effectiveness and less cytotoxicity, licochalcone A (1 μM) and LM‐031 (1 μM) were chosen as the candidate compounds for the following experiments. […] Representative DsRed and thioflavin S fluorescent images of ∆K280 TauRD‐DsRed‐expressing cells untreated or treated with congo red (10 µM), licochalcone A (1 µM), or LM‐031 (1 µM) are shown in Figure S2d.
DsRed fluorescence of proaggregant ∆K280 TauRD-DsRed 293 cells was evaluated to reflect Tau aggregation. On day 1, cells were seeded on a 96-well plate in a density of 0.8 × 10^4 cells/well. […] On the fifth day, the cells were stained with Hoechst 33342 (0.1 µg/ml; Sigma-Aldrich) for 30 min to identify total cell number; DsRed fluorescence images (543 nm excitation and 593 nm emission) were automatically captured by using the ImageXpressMICRO high-content imaging system (Molecular Devices, Sunnyvale, CA, USA) and analyzed using MetaXpress image acquisition and analysis software (Molecular Devices). In addition, the cells were fixed with paraformaldehyde (4% in PBS) for 15 minutes, permeabilized with methanol (80%) for 6 minutes at -20°C, incubated with thioflavin S (0.02%; Sigma-Aldrich) and 4’,6-diamidino-2-phenylindole (DAPI) (0.1 μg/ml; Sigma-Aldrich) for 5 minutes, and washed in ethanol (50%). Thioflavin S images ([…]) were captured and analyzed as described. In general, 2 × 10^4 cells in each biological replicate were analyzed.
Figure S2. ΔK280 TauRD-DsRed 293 cells. (a) Experimental flow chart. Cells were plated on day 1. On day 2, the cells were treated with congo red or test compounds for 8 h; addition of doxycycline (Dox; 1 µg/ml) followed. DsRed/thioﬂavin S fluorescence, ROS, and caspase 3 activity were assessed on day 5. (b) Cytotoxicity of the test compounds against 293 cells expressing ∆K280 TauRD-DsRed for 3 days using the survived cell number (n = 3). IC50 values are listed. (c) Dose response curves of LM-031 based on DsRed fluorescence measurement. (d) Fluorescent images of ΔK280 TauRD-DsRed 293 cells untreated or treated with congo red (10 µM), licochalcone A (1 µM), or LM-031 (1 µM). Nuclei were counterstained with Hoechst 33342 (blue), and merged DsRed and Hoechst 33342 signals were shown. In addition, tau aggregation was monitored by staining with thioﬂavin S (green).

[1] = Tet-on ∆K280 TauRD-DsRed 293 cells (expression induced), ∆K280 TauRD‐DsRed‐expressing 293 cells

Row | SMILES | viability at 3 days, 1 µM [1] | IC50 at 3 days | viability at 3 days, 10 µM (Tet-on ∆K280 TauRD-DsRed 293 cells (expression induced), 10 μM, ∆K280 TauRD‐DsRed‐expressing 293 cells)
1 | C=CC(C)(C)c1cc(/C=C/C(=O)c2ccc(O)cc2)c(OC)cc1O [licochalcone A, reference compound] | 94 to 97% | 5.9 µM | 
2 | Nc1c(/N=N/c2ccc(-c3ccc(/N=N/c4cc(S(=O)(=O)O)c5ccccc5c4N)cc3)cc2)cc(S(=O)(=O)O)c2ccccc12 [congo red, reference compound] |  | 36.9 µM | 
3 | O=C(c1ccccc1)c1cc2c(O)cccc2oc1=O [LM‐031, 3‐benzoyl‐5‐hydroxychromen‐2‐one] | 94 to 97% | 56.6 µM | 91%
4 | COc1ccc(C(=O)/C=C/c2cc(Br)ccc2O)cc1 [LM‐004] |  | 5 µM | 
